From paper PMC10510102, “Efficient Ligand Discovery Using Sulfur(VI) Fluoride Reactive Fragments” (ACS Chemical Biology, 2023)

Key:
[1] = molecular target: BCL6 BTB/POZ domain (Homo sapiens, UniProt P41182, C67R/C84N/C8Q); assay: Displacement study with GSK137, intact protein LC-MS; type: binding; design: hBCL6-Flag-6H-Avi 3Cmut (5–129) produced as part of the GSK/GenScript collaboration; Flag (C); 6H (His6) (C); Avi (C); details: for Modification (GSK137 treatment) / Modification (DMSO-d6 treatment): 1 μM protein, 50 μM SF, 20 °C, 24 h, average of duplicate; for Modification (GSK137 treatment): 50 μM GSK137; for Displacement Ratio: DModification/Modification(DMSO-d6 treatment); for Displacement: attenuation of covalent modification by GSK137; for DModification: difference DMSO-d6 vs GSK137 treatment
Source text: With additional hits identified from the iterative screen, we sought to obtain further structural and biophysical information to better understand how these reactive fragments bind to BCL6. A total of eight SF hits were resynthesized and purified: the four from the original screen (2f–i) and four from the iterative screen (2p, 2q, 2s, and 2t). […]
8. BCL6 – Further investigations into hits by structural and biophysical studies
8.1. Displacement study with GSK137
The (resynthesized and purified) SF hits (2f–i, 2p, 2q, 2s, and 2t) were plated into a Greiner 384 white low volume plate from a 10 mM source in DMSO, or DMSO-d 6 only as a control. GSK137 (11) was also added from a 10 mM source in DMSO. Purified BCL6 diluted from original stock into a buffer made up of HEPES (pH 7.5, 25 mM) and NaCl (50 mM) in distilled MS-grade water (15 µL per well) was subsequently added across the plate. Final concentrations: 1 µM protein; 50 µM SF; 50 µM GSK137. The plate was sealed, centrifuged (1 min, 1000 rpm), incubated at 20 °C for 24 h, and subsequently analyzed by intact protein LC-MS. This was performed in duplicate and average covalent modification yields were used for analysis.
Table S8. Quantitative output from intact LC-MS analysis of BCL6 BTB/POZ domain reacted with SFs after incubation of DMSO-d 6 or GSK137. Extent of displacement measured as (DModification/Modification(DMSO-d 6 treatment)). […]

[2] = molecular target: T1, BCL6 (Homo sapiens, UniProt P41182, C67R/C84N/C8Q); assay: Identification of site(s) of covalent modification by tandem MS; details: 2 μM BCL6, 100 μM SF, 4 °C, 24 h; trypsin digest LC-MS/MS
T1 construct: hBCL6-Flag-6H-Avi 3Cmut (5–129) produced as part of the GSK/GenScript collaboration; Flag (C); 6H (His6) (C); Avi (C)
Method: The top hits from the SF screen with BCL6 represented two distinct chemotypes: meta-substituted benzamides (2f and 2g) and azetidine aryl ethers (2h and 2i). These were resynthesized and purified for follow-up studies. […] Tyr57 has previously been targeted by a BCL6 inhibitor (14, TMX-2164); however, the targeting of His115 is a novel modification; these residues are located on opposite sides of the binding site of previously reported BCL6 inhibitors (11–14) (see Figure 5b).
7. BCL6 – site of binding studies and iterative screen
7.1. Identification of the site(s) of covalent modification by tandem MS (BCL6)
The (resynthesized and purified) SF hits (2f–i) were plated into a Greiner 384 PP F-bottom plate from a 10 mM source in DMSO. Purified BCL6 diluted from original stock into a buffer made up of HEPES (pH 7.5, 25 mM) and NaCl (50 mM) in distilled MS-grade water (50 µL per well) was subsequently added across the plate. Final concentrations: 2 µM protein; 100 µM SF. The plate was sealed, centrifuged (1 min, 1000 rpm), incubated at 4 °C for 24 h, and 15 µL aliquots were subsequently removed and analyzed by intact protein LC-MS.
The remaining samples (1 μg) were separated by SDS-PAGE to remove excess unbound compound. Gels were stained with colloidal Comassie InstantBlue and bands corresponding to BCL6 were excised, reduced with 10 mM TCEP (65 °C, 30 mins), and alkylated with 10 mM iodoacetamide (r.t., 30 mins, dark). Samples were digested with trypsin (Promega) 1:10 E:S (37 °C, 16 h) in 100 mM ammonium bicarbonate. After removal of the supernatant, peptides were extracted using acetonitrile. Combined supernatants were concentrated in a SpeedVac centrifuge and acidified (0.1% formic acid, 0.05% trifluoroacetic acid) prior to injection into the LC-MS/MS system.
Digested samples were injected on an Easy-nLC 1200 UHPLC system (Thermo Scientific). The nanoLC was interfaced to an Orbitrap Fusion Lumos Mass Spectrometer (Thermo Scientific). Tryptic peptides were loaded on a 2 cm × 75 µm Acclaim PepMap 100 C18 trapping column (Thermo Scientific) and separated on a 25 cm × 75 μm, 2 µm particles, PepMap C18, 2 μm particle column (Thermo Scientific) using a 50 min gradient of 2–38% acetonitrile, 0.2% formic acid and a flow of 300 nL/min. LC-MS/MS based peptide sequencing was performed by data dependent analysis (DDA). Full MS 350–1600 Da at 120,000 resolution, MS AGC target 1e6, MS Maximum IT 50 ms, followed by MS/MS using a 3 sec. cycle time, stepped collision energy mode at 25, 29 and 32 CE%, Isolation window 1.6 m/z, fixed first mass 145 m/z, 15,000 orbitrap resolution, MS/MS AGC target 1e5 and MS/MS Maximum IT 200 ms. Alternatively, samples were analyzed by Parallel Reaction Monitoring (PRM) targeting precursor ions relative to the modified peptides. […]

Structure (SMILES) | Modification (GSK137 treatment) [1] [%] | Modification (DMSO-d6 treatment) [1] [%] | Displacement Ratio [1] | Displacement [1] [%] | DModification [1] [%] | site of covalent modification [2]
CC(=O)Nc1cccc(CNC(=O)Cc2ccc(S(=O)(=O)F)cc2)c1 [2g] | 4.8 | 25.0 | 0.81 | 81 | 20.2 | Tyr57
O=C(Cc1ccc(S(=O)(=O)F)cc1)N1CC(Oc2ccc(F)c(F)c2)C1 [2h] | 1.6 | 10.3 | 0.84 | 84 | 8.7 | His115
NC(=O)c1ccccc1OC1CN(C(=O)Cc2ccc(S(=O)(=O)F)cc2)C1 [2i] | 1.6 | 19.7 | 0.92 | 92 | 18.1 | His115
CN(C)C(=O)Nc1cccc(CNC(=O)Cc2ccc(S(=O)(=O)F)cc2)c1 [2f] | 3.8 | 17.6 | 0.78 | 78 | 13.8 | Tyr57
